Measured values from patent publication US20210196724A1, “BIARYL COMPOSITIONS AND METHODS FOR MODULATING A KINASE CASCADE” (Athenex, Inc., priority 2016, published 2021).
Read-outs that look alike come from different tables or passages of the source.

Legend:
[1] = system: AsPC-1 cells; test: CellTiter-Glo cell viability, AsPC-1; format: cell-based; details: for GI50: read-out: Absolute GI50; for IC50: read-out: Absolute IC50
Description: (§1) The cell viability of 50 cancer cell lines was studied after treatment with Compound 121. Inhibition concentration values at 50% (IC50) were determined using CellTiter-Glo luminescent cell viability assay after incubation with different compound concentrations. GI50 values were determined according to the examples described above. Each cell line was treated with Compound 121, a standard chemotherapy drug as a reference control, and culture medium as a vehicle control.
(§2) All cells were cultured in media supplemented with 10-15% FBS at 37° C. in the presence of 5% CO2 and at 95% humidity. The culture medium was purchased from GIBCO or Sigma, USA. Cisplatin was chosen as the reference control and purchased from Hospira Australia Pty Ltd. The cell lines studied are presented in Table 5.
(§3) Cells were harvested during a logarithmic growth period and cell number count was determined using Count-star. Cell concentrations were adjusted to 4.44×10^4 cells/mL with respective culture medium. 90 μL of cell suspensions were added to two 96-well plates (plates A and B) with a final cell density of 4×10^3 cells/well.
(§4) 10 μL of culture medium was added to each well of plate A for TO reading. The plate was allowed to equilibrate at room temperature for approximately 30 min. 50 μL of CellTiter-Glo was added to each well and the contents were mixed for 5 min on an orbital shaker to induce cell lysis. The plate was allowed to incubate at room temperature for 20 min to stabilize luminescent signal.
(§5) 10 μM Compound 121 in media was serially diluted 3.16-fold to achieve 9 dose levels. Similarly, 100 μM reference control in media was serially diluted 3.16-fold to prepare reference control solutions. 10 μL drug solution and 10 μL of reference control was dispensed into each well in plate B.
(§6) Test plate B was incubated for 72 h in a humidified incubator at 37° C. in the presence of 5% CO2 and then subjected to CTG assay. The plate was allowed to equilibrate at room temperature for about 30 min. 50 μL of CellTiter-Glo was added to each well and the contents were mixed for 5 min on an orbital shaker to induce cell lysis. The plate was allowed to incubate at room temperature for 20 min to stabilize luminescent signal.
(§7) IC50 and GI50 values for each of the 50 cell lines are presented in Table 6 and were calculated based on the dose-response curves depicted in FIGS. 1-50. The dose-response curves were fitted using nonlinear regression model with a sigmoidal dose response. The formula for calculating survival rate was calculated by the formula:
(§8) Survival rate (%)=(LumTest article−LumMedium control)/(LumNone treated−LumMedium control)×100.

[2] = system: BT474 cells; test: CellTiter-Glo cell viability, BT474; format: cell-based; details: for GI50: read-out: Absolute GI50; for IC50: read-out: Absolute IC50
Description: as §1, §2, §3, §4, §5, §6, §7, §8

[3] = system: A-673 cells; test: CellTiter-Glo cell viability, A-673; format: cell-based; details: for GI50: read-out: Absolute GI50; for IC50: read-out: Absolute IC50
Description: as §1, §2, §3, §4, §5, §6, §7, §8

[4] = system: HCT-15 cells; test: CellTiter-Glo cell viability, HCT-15; format: cell-based; details: 72 h; for GI50: read-out: Absolute GI50; for IC50: read-out: Absolute IC50
Description: as §1, §2, §3, §4, §5, §6, §7, §8

[5] = system: SK-MEL-28 cells; test: CellTiter-Glo cell viability, SK-MEL-28; format: cell-based; details: 72 h; for GI50: read-out: Absolute GI50; for IC50: read-out: Absolute IC50
Description: as §1, §2, §3, §4, §5, §6, §7, §8

[6] = system: A-172 cells; test: CellTiter-Glo cell viability, A-172; format: cell-based; details: 72 h; for GI50: read-out: Absolute GI50; for IC50: read-out: Absolute IC50
Description: as §1, §2, §3, §4, §5, §6, §7, §8

[7] = system: TJ905 cells; test: CellTiter-Glo cell viability, TJ905; format: cell-based; details: 72 h; for GI50: read-out: Absolute GI50; for IC50: read-out: Absolute IC50
Description: as §1, §2, §3, §4, §5, §6, §7, §8

[8] = Brain permeability (brain:plasma ratio); format: in vivo; details: read-out: Brain:Plasma (B:P) Average
Description: Brain permeability can be measured by various methods known in the art. For example, brain permeability can be measured by calculating the ratio between the concentration of a compound of the application in the brain and the concentration of the compound in the plasma (i.e., BP ratio). In one aspect, a compound of the application has a B:P ratio of at least 1.0, 1.1, 1.2, 1.3, 1.4, 1.5, 1.6, 1.7, 1.8, 1.9, or 2.0 at 1 hour after administration of the compound to a subject. In one aspect, a compound of the application has a B:P ratio of at least 1.5, 1.6, 1.7, 1.8, 1.9, or 2.0 at 1 hour after administration of the compound to a subject. In one aspect, a compound of the application has a B:P ratio of at least 1.4, 1.5, 1.6, 1.7, 1.8, 1.9, 2.0, 2.1, 2.2, or 2.3 at 2 hours after administration of the compound to a subject. In one aspect, a compound of the application has a B:P ratio of at least 1.9, 2.0, 2.1, 2.2, or 2.3 at 2 hours after administration of the compound to a subject. In one aspect, a compound of the application has a B:P ratio of at least 1.7, 1.8, 1.9, 2.0, 2.1, 2.2, 2.3, 2.4, or 2.5 at 4 hours after administration of the compound to a subject. In one aspect, a compound of the application has a B:P ratio of at least 2.2, 2.3, 2.4, or 2.5 at 4 hours after administration of the compound to a subject.

[9] = 72 h, top conc. 10 μM Compound 121, 100 μM cisplatin
[10] = top conc. 10 μM Compound 121, 100 μM cisplatin
[11] = Homo sapiens, top conc. 10 μM Compound 121, 100 μM cisplatin

**Q.** Which GI50 ([1]; 72 h) does the source give for N.N.[Cl][Pt][Cl] [Cisplatin, reference compound] here?
**A.** The GI50 was 2730 nM.

**Q.** And the IC50 ([1]; 72 h)?
**A.** The IC50 was 3.31 µM.

**Q.** What about the “% inhibition at top conc.” value [1, 9] of the same molecule?
**A.** Its value is 72.39%.

**Q.** What about the GI50 ([2]; 72 h) of the same molecule?
**A.** The GI50 was 39.3 µM.

**Q.** What about the IC50 ([2]; 72 h) of the same molecule?
**A.** The IC50 was 45.1 µM.

**Q.** What about the “% inhibition at top conc.” value [2, 9] of the same molecule?
**A.** The value was 59.96%.

**Q.** What about the GI50 ([3]; 72 h) of the same molecule?
**A.** The GI50 was 400 nM.

**Q.** And the IC50 ([3]; 72 h)?
**A.** Its IC50 is 1120 nM.

**Q.** And the “% inhibition at top conc.” value [3, 9]?
**A.** Its value is 99.59%.

**Q.** What about the GI50 [4] of the same molecule?
**A.** Its GI50 is 4270 nM.

**Q.** What about the IC50 [4] of the same molecule?
**A.** The IC50 was 4760 nM.

**Q.** What about the “% inhibition at top conc.” value [4, 10] of the same molecule?
**A.** The value was 98.22%.

**Q.** What about the GI50 [5] of the same molecule?
**A.** The GI50 was 7.09 µM.

**Q.** What about the IC50 [5] of the same molecule?
**A.** The IC50 was 8.9 µM.

**Q.** What about the “% inhibition at top conc.” value [5, 10] of the same molecule?
**A.** Its value is 99.29%.

**Q.** And the GI50 [6]?
**A.** Its GI50 is 15.9 µM.

**Q.** What about the IC50 [6] of the same molecule?
**A.** Its IC50 is 20.3 µM.

**Q.** And the “% inhibition at top conc.” value [6, 10]?
**A.** The value was 93.09%.

**Q.** What about the GI50 [7] of the same molecule?
**A.** The GI50 was 6.56 µM.

**Q.** What about the IC50 [7] of the same molecule?
**A.** The IC50 was 9.85 µM.

**Q.** What about the “% inhibition at top conc.” value [7, 10] of the same molecule?
**A.** The value was 80.57%.

**Q.** Which results are given for Cc1cc(N2CCOC[C@@H]2C)ccc1-c1ccc(CC(=O)NCc2ccc(F)cc2)nc1 [Compound 121]?
**A.** GI50 ([1]; Homo sapiens, ASPC1, 72 h): 12 nM; IC50 ([1]; Homo sapiens, ASPC1, 72 h): > 10 µM; inhibition at 10 µM ([1]; Homo sapiens, ASPC1, 72 h, top conc. 10 μM Compound 121, 100 μM cisplatin): 51.2%; GI50 ([2]; Homo sapiens, BT-474, 72 h): 0.012 µM; IC50 ([2]; Homo sapiens, BT-474, 72 h): > 10 µM; inhibition at 10 µM ([2]; Homo sapiens, BT-474, 72 h, top conc. 10 μM Compound 121, 100 μM cisplatin): 37.9%; GI50 ([3]; Homo sapiens, A673, 72 h): 3 nM; IC50 ([3]; Homo sapiens, A673, 72 h): 4 nM; inhibition at 10 µM ([3]; Homo sapiens, A673, 72 h, top conc. 10 μM Compound 121, 100 μM cisplatin): 86.1%; GI50 ([4]; Homo sapiens): 5 nM; IC50 ([4]; Homo sapiens): 6 nM; inhibition at 10 µM [4, 11]: 96.8%; GI50 ([5]; Homo sapiens): 0.004 µM; IC50 ([5]; Homo sapiens): > 10 µM; inhibition at 10 µM [5, 11]: 52.9%; GI50 ([6]; Homo sapiens): 0.006 µM; IC50 ([6]; Homo sapiens): 0.007 µM; inhibition at 10 µM [6, 11]: 92.8%; GI50 [7]: 0.004 µM; IC50 [7]: 0.004 µM; inhibition at 10 µM [7, 10]: 70%; Kp at 0.25 h ([8]; time point 0.25 h): 1.08; Kp at 0.5 h ([8]; time point 0.5 h): 1.37; Kp at 1 h ([8]; time point 1 h): 1.53; Kp at 2 h ([8]; time point 2 h): 1.93; Kp at 4 h ([8]; time point 4 h): 2.29; Kp at 6 h ([8]; time point 6 h): 1.66; Kp at 8 h ([8]; time point 8 h): 1.24
